We go through one compound from publication PMC7883873, “Discovery of New Catalytic Topoisomerase II Inhibitors for Anticancer Therapeutics” (Frontiers in Oncology, 2021).

One test has as its target TOP2B (Homo sapiens, UniProt Q02880). In words: K-DNA decatenation assay. Type of test: biochemical. Set-up: full-length human TOP2A and TOP2B protein (TopoGEN and Inspiralis respectively); purchased Inspiralis HTB205. To be noted: densitometry of D-DNA bands; read-out: IC50, inhibition of TOP2B K-DNA decatenation. As to the method:
(§1) The human TOP2 assay kit (#TG1001, TopoGEN, Buena Vista, CO) and TOP2B (HTB205, Inspiralis, UK) were used for K-DNA decatenation assays. […] The reaction was incubated at 37C for 2 h after which 4 µl stop solution (5× buffer is 5% Sarkosyl, 0.125% bromophenol blue, 25% glycerol) was added. The reaction was resolved by electrophoresis on a 0.8% agarose gel at 60 V and stained with 0.5 µg/ml ethidium bromide for 15 min. DNA bands were visualized using a gel imager (Gel Doc™ EZ System) and quantified using the Image Studio™ Lite Quantification Software.

For another test, the target named is TOP2A (Homo sapiens, UniProt P11388). In words: K-DNA decatenation assay. Type of test: biochemical. Set-up: full-length human TOP2A and TOP2B protein (TopoGEN and Inspiralis respectively); purchased TopoGEN TG1001 (human TOP2 assay kit). As for the experimental part: as §1

As usually defined, the IC50 is the concentration that inhibits the measured activity by half.

Sequence of TOP2A (P11388 whole entry): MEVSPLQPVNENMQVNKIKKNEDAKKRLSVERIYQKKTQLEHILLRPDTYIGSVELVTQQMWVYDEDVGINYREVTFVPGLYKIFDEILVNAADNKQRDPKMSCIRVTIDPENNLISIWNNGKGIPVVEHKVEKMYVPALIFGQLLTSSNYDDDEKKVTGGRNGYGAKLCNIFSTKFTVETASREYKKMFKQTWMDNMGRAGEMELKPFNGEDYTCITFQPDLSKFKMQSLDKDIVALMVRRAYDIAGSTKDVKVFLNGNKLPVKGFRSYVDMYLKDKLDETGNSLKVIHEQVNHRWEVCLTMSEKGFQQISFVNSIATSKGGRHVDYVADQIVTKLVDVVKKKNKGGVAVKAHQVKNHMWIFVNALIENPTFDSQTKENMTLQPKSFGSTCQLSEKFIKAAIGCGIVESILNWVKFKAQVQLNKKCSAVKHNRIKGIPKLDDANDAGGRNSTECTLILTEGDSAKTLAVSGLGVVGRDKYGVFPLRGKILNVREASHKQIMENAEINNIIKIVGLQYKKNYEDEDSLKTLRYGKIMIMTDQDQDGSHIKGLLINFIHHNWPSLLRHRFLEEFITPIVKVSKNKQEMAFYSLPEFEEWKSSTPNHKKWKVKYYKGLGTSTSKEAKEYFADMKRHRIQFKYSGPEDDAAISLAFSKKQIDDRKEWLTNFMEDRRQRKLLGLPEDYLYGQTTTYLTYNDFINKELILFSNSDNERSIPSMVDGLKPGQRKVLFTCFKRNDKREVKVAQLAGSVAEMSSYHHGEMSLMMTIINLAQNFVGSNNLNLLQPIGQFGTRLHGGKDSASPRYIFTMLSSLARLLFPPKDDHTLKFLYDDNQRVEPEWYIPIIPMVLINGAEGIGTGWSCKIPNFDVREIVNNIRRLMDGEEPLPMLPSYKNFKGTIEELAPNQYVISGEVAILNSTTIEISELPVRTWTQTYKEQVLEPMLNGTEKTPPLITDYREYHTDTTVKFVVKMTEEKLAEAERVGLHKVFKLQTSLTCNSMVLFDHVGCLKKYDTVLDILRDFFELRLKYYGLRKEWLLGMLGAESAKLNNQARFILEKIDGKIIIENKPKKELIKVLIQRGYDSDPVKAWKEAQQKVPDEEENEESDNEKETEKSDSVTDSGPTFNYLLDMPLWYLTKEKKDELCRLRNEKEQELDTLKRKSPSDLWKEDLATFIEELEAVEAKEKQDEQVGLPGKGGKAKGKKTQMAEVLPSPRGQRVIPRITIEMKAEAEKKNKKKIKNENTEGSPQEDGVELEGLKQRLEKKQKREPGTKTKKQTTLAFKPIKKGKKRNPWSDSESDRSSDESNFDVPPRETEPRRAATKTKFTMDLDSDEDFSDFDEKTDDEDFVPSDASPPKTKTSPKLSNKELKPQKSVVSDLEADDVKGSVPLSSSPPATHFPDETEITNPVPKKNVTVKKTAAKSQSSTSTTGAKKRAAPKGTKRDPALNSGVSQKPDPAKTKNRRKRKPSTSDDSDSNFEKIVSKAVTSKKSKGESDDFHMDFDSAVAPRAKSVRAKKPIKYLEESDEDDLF
Sequence of TOP2B (Q02880 whole entry): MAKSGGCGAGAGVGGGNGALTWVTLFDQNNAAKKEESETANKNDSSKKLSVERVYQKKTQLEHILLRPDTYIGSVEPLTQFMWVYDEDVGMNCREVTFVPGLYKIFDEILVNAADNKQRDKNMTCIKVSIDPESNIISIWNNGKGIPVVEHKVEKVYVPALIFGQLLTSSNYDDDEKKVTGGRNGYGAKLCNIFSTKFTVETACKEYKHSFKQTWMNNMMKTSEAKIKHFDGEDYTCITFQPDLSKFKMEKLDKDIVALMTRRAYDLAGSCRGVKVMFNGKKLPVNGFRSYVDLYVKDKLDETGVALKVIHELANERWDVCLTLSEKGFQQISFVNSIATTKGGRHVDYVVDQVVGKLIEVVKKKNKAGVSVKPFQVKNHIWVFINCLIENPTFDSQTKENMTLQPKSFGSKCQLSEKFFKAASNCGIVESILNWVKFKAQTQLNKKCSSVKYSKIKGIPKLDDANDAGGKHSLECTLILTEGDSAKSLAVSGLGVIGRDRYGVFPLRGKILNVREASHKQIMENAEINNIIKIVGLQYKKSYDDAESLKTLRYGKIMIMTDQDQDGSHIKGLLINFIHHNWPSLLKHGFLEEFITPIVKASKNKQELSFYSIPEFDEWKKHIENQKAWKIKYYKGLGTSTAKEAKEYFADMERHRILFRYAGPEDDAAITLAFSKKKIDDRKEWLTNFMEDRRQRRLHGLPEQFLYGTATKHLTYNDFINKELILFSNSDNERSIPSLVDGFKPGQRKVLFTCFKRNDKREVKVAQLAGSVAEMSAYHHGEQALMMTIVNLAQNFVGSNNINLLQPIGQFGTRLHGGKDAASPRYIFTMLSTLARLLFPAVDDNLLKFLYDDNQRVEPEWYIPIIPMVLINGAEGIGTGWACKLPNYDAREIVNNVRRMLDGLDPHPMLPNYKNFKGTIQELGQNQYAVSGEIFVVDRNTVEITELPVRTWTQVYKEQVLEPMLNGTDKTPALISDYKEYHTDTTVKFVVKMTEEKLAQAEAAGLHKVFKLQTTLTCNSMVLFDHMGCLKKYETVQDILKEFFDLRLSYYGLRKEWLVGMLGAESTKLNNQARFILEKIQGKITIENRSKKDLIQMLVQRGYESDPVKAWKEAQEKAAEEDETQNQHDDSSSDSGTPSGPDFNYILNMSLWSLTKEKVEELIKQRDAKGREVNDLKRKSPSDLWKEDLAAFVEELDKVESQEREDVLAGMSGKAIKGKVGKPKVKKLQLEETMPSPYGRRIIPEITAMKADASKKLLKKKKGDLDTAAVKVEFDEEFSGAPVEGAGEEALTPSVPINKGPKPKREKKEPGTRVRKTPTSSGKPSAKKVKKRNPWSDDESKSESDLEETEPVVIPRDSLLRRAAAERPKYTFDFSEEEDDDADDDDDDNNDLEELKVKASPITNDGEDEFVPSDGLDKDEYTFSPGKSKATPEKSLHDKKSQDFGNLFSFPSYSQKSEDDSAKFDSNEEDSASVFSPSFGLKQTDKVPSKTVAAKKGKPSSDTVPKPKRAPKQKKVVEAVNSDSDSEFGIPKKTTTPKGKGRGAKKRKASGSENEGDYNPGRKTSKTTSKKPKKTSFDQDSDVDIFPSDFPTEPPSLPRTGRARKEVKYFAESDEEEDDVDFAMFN

In the case of `O=C(Nc1ccc(Nc2ccccc2)cc1)c1ccc[nH]c1=S` [T60], the IC50 was approximately 3000 nM at TOP2B and approximately 300 nM at TOP2A (densitometry of D-DNA bands, read-out: IC50, inhibition of TOP2A K-DNA decatenation). Further, the “Inhibition of TOP2A mediated K-DNA decatenation” value on TOP2A (Figure 3A) is given as “inhibited”.
